Assay results as given in PubChem BioAssay AID1745844 (Carcinogenic Potency Database (CPDB), 2022).
Active and inactive are the calls of the source. How the calls were made is not given here.

Tested on: rodent lifetime carcinogenesis bioassay, tumor incidence TD50
Assay: carcinogenic potency in animals, long-term in vivo studies, CPDB compilation (AID 1745844)

Structure (SMILES): CCNC(=S)NCC
- carcinogen call (mouse, strain B6C3F1, females, in feed, site: any site (literature study), lesion: several types, types named in the paper, dosed 103 weeks, study length 104 weeks): negative (inactive)
- TD50 (mouse, strain B6C3F1, females, in feed, site: liver, lesion: hepatocellular adenoma + hepatocellular carcinoma + neoplastic nodule, dosed 103 weeks, study length 104 weeks): 687 mg/kg/day
- carcinogen call (mouse, strain B6C3F1, males, in feed, site: any site (literature study), lesion: several types, types named in the paper, dosed 103 weeks, study length 104 weeks): negative (inactive)
- TD50 (rat, strain F344/DuCrj, males, in feed, site: thyroid gland, lesion: follicular-cell carcinoma, dosed 52 weeks, study length 52 weeks): 28.1 mg/kg/day
- TD50 (rat, strain Fischer 344, females, in feed, site: any site (literature study), lesion: several types, types named in the paper, dosed 104 weeks, study length 104 weeks): 21.5 mg/kg/day
- TD50 (rat, strain Fischer 344, females, in feed, site: thyroid gland, lesion: follicular-cell adenoma + follicular-cell carcinoma, dosed 104 weeks, study length 104 weeks): 23.8 mg/kg/day
- TD50 (rat, strain Fischer 344, females, in feed, site: thyroid gland, lesion: follicular-cell carcinoma, dosed 104 weeks, study length 104 weeks): 57.9 mg/kg/day
- TD50 (rat, strain Fischer 344, males, in feed, site: any site (literature study), lesion: several types, types named in the paper, dosed 103 weeks, study length 104 weeks): 12.9 mg/kg/day
- TD50 (rat, strain Fischer 344, males, in feed, site: thyroid gland, lesion: follicular-cell adenoma + follicular-cell carcinoma, dosed 103 weeks, study length 104 weeks): 24.3 mg/kg/day
- TD50 (rat, strain Fischer 344, males, in feed, site: thyroid gland, lesion: follicular-cell carcinoma, dosed 103 weeks, study length 104 weeks): 33.6 mg/kg/day

Structure (SMILES): CCNN
- TD50 (mouse, strain Swiss albino, females, in drinking water, site: blood vessels, lesion: angioma, dosed 82 weeks, study length 82 weeks): 42.9 mg/kg/day
- TD50 (mouse, strain Swiss albino, females, in drinking water, site: blood vessels, lesion: angiosarcoma, dosed 82 weeks, study length 82 weeks): 27.6 mg/kg/day
- TD50 (mouse, strain Swiss albino, females, in drinking water, site: blood vessels, lesion: several types, types named in the paper, dosed 82 weeks, study length 82 weeks): 11.6 mg/kg/day
- TD50 (mouse, strain Swiss albino, females, in drinking water, site: liver, lesion: angioma, dosed 82 weeks, study length 82 weeks): 42.9 mg/kg/day
- TD50 (mouse, strain Swiss albino, females, in drinking water, site: liver, lesion: angiosarcoma, dosed 82 weeks, study length 82 weeks): 27.6 mg/kg/day
- TD50 (mouse, strain Swiss albino, females, in drinking water, site: liver, lesion: several types, types named in the paper, dosed 82 weeks, study length 82 weeks): 13 mg/kg/day
- TD50 (mouse, strain Swiss albino, females, in drinking water, site: lung, lesion: adenocarcinoma, dosed 82 weeks, study length 82 weeks): 14 mg/kg/day
- TD50 (mouse, strain Swiss albino, females, in drinking water, site: lung, lesion: adenoma, dosed 82 weeks, study length 82 weeks): 5.62 mg/kg/day
- TD50 (mouse, strain Swiss albino, females, in drinking water, site: lung, lesion: several types, types named in the paper, dosed 82 weeks, study length 82 weeks): 5.22 mg/kg/day
- TD50 (mouse, strain Swiss albino, males, in drinking water, site: blood vessels, lesion: angiosarcoma, dosed 72 weeks, study length 72 weeks): 46.9 mg/kg/day
- TD50 (mouse, strain Swiss albino, males, in drinking water, site: blood vessels, lesion: several types, types named in the paper, dosed 72 weeks, study length 72 weeks): 38.6 mg/kg/day
- TD50 (mouse, strain Swiss albino, males, in drinking water, site: liver, lesion: angiosarcoma, dosed 72 weeks, study length 72 weeks): 46.9 mg/kg/day
- TD50 (mouse, strain Swiss albino, males, in drinking water, site: liver, lesion: several types, types named in the paper, dosed 72 weeks, study length 72 weeks): 48.1 mg/kg/day
- TD50 (mouse, strain Swiss albino, males, in drinking water, site: lung, lesion: adenoma, dosed 72 weeks, study length 72 weeks): 7.82 mg/kg/day
- TD50 (mouse, strain Swiss albino, males, in drinking water, site: lung, lesion: several types, types named in the paper, dosed 72 weeks, study length 72 weeks): 8.81 mg/kg/day

Structure (SMILES): O=C(O)c1cccnc1
- carcinogen call (mouse, strain Swiss albino, females, in drinking water, site: liver, lesion: several types, types named in the paper, dosed 139 weeks, study length 139 weeks): negative (inactive)
- TD50 (mouse, strain Swiss albino, females, in drinking water, site: lung, lesion: one or several types, types not named, dosed 139 weeks, study length 139 weeks): 17000 mg/kg/day (inactive)
- carcinogen call (mouse, strain Swiss albino, males, in drinking water, site: liver, lesion: several types, types named in the paper, dosed 119 weeks, study length 119 weeks): negative (inactive)
- carcinogen call (mouse, strain Swiss albino, males, in drinking water, site: lung, lesion: one or several types, types not named, dosed 119 weeks, study length 119 weeks): negative (inactive)

Structure (SMILES): CCCc1c(OCCCCc2nn[nH]n2)ccc(C(C)=O)c1O
- TD50 (mouse, strain B6C3F1, females, in feed, site: liver, lesion: hepatocellular adenoma, dosed 104 weeks, study length 104 weeks): 369 mg/kg/day
- TD50 (mouse, strain B6C3F1, females, in feed, site: liver, lesion: hepatocellular carcinoma, dosed 104 weeks, study length 104 weeks): 112 mg/kg/day
- TD50 (mouse, strain B6C3F1, males, in feed, site: liver, lesion: hepatocellular adenoma, dosed 104 weeks, study length 104 weeks): 2740 mg/kg/day
- TD50 (mouse, strain B6C3F1, males, in feed, site: liver, lesion: hepatocellular carcinoma, dosed 104 weeks, study length 104 weeks): 426 mg/kg/day

Structure (SMILES): CCCCCCC(=O)C/C=C/CCCCCCCC(=O)OC
- TD50 (mouse, strain ST/a, both sexes, in feed, site: all sites, lesion: malignant lymphoma, dosed 42 weeks, study length 84 weeks): 2940 mg/kg/day (inactive)
